Assay results reported in US10004701B2, “Methods and compositions for treating infection” (UNIVERSITY OF ROCHESTER, priority 2012, dated 2018).
Where a name gives a salt, the structure may show the parent alone. Read-outs that look alike come from different tables or passages of the source.

Key:
Assay in all cases: AK assay 384-well format, Prestwick library screening
[1] = test system: S. aureus strain USA300-0114; type: cell-based, Staphylococcus aureus; settings: 50 μM final drug concentration; for fold induction at 50 µM: Staphylococcus aureus, USA300, 3 h
E. cloacae = type: cell-based, Enterobacter cloacae; settings: 50 μM final drug concentration; for fold induction at 50 µM: Enterobacter cloacae, 3 h
E. faecium = type: cell-based, Enterococcus faecium; settings: 50 μM final drug concentration; for fold induction at 50 µM: Enterococcus faecium, 3 h
E. coli = type: cell-based, Escherichia coli; settings: 50 μM final drug concentration; for fold induction at 50 µM: Escherichia coli, 3 h
P. aeruginosa = type: cell-based, Pseudomonas aeruginosa; settings: 50 μM final drug concentration; for fold induction at 50 µM: Pseudomonas aeruginosa, 3 h
K. pneumoniae = type: cell-based, Klebsiella pneumoniae; settings: 50 μM final drug concentration; for fold induction at 50 µM: Klebsiella pneumoniae, 3 h
[2] = test system: A. baumannii strain 98-37-09; type: cell-based, Acinetobacter baumannii; settings: 50 μM final drug concentration; for fold induction at 50 µM: Acinetobacter baumannii, 983709, 3 h
[3] = 384-well format, cutoff for positive-scoring molecules 3-fold increase, read-out: AK-based Prestwick Library Screening Results, S. aureus (increase in extracellular AK activity)
[4] = 384-well format, cutoff for positive-scoring molecules 3-fold increase, read-out: AK-based Prestwick Library Screening Results, E. cloacae (increase in extracellular AK activity)
[5] = 384-well format, cutoff for positive-scoring molecules 3-fold increase, read-out: AK-based Prestwick Library Screening Results, E. faecium (increase in extracellular AK activity)
[6] = 384-well format, cutoff for positive-scoring molecules 3-fold increase, read-out: AK-based Prestwick Library Screening Results, E. coli (increase in extracellular AK activity)
[7] = 384-well format, cutoff for positive-scoring molecules 3-fold increase, read-out: AK-based Prestwick Library Screening Results, P. aeruginosa (increase in extracellular AK activity)
[8] = 384-well format, cutoff for positive-scoring molecules 3-fold increase, read-out: AK-based Prestwick Library Screening Results, K. pneumoniae (increase in extracellular AK activity)
[9] = 384-well format, cutoff for positive-scoring molecules 3-fold increase, read-out: AK-based Prestwick Library Screening Results, A. baumannii (increase in extracellular AK activity)

CN/C(=N/CCSCc1nc[nH]c1C)NC#N [Cimetidine]
fold induction at 50 µM [1, 3]: 0.8
fold induction at 50 µM (E. cloacae; [4]): 1
fold induction at 50 µM (E. faecium; [5]): 0.9
fold induction at 50 µM (E. coli; [6]): 0.9
fold induction at 50 µM (P. aeruginosa; [7]): 0.8
fold induction at 50 µM (K. pneumoniae; [8]): 0.7
fold induction at 50 µM [2, 9]: 0.8

Cc1ccccc1N1C(=O)c2cc(S(N)(=O)=O)c(Cl)cc2NC1C (stereo not drawn) [Metolazone]
fold induction at 50 µM [1, 3]: 0.7
fold induction at 50 µM (E. cloacae; [4]): 1
fold induction at 50 µM (E. faecium; [5]): 0.8
fold induction at 50 µM (E. coli; [6]): 0.8
fold induction at 50 µM (P. aeruginosa; [7]): 0.7
fold induction at 50 µM (K. pneumoniae; [8]): 0.6
fold induction at 50 µM [2, 9]: 0.8

CN1CCc2cccc3c2[C@H]1Cc1ccc(O)c(O)c1-3.CN1CCc2cccc3c2[C@H]1Cc1ccc(O)c(O)c1-3.Cl.Cl.O
AK-based Prestwick Library Screening Results, S. aureus (increase in extracellular AK activity) ([1]; 384-well format, […]): 0.9
AK-based Prestwick Library Screening Results, E. cloacae (increase in extracellular AK activity) (E. cloacae; 384-well format, […]): 0.9
AK-based Prestwick Library Screening Results, E. faecium (increase in extracellular AK activity) (E. faecium; 384-well format, […]): 0.8
AK-based Prestwick Library Screening Results, E. coli (increase in extracellular AK activity) (E. coli; 384-well format, […]): 0.8
AK-based Prestwick Library Screening Results, P. aeruginosa (increase in extracellular AK activity) (P. aeruginosa; 384-well format, […]): 0.6
AK-based Prestwick Library Screening Results, K. pneumoniae (increase in extracellular AK activity) (K. pneumoniae; 384-well format, […]): 0.8
AK-based Prestwick Library Screening Results, A. baumannii (increase in extracellular AK activity) ([2]; 384-well format, […]): 0.8

CN1CCN(C(c2ccccc2)c2ccccc2)CC1 [Cyclizine hydrochloride]
fold induction at 50 µM ([1]; planktonic S. aureus, cutoff for positive-scoring molecules 3-fold increase, read-out: AK-based Prestwick Library Screening Results, S. aureus (increase in extracellular AK activity)): 0.9
fold induction at 50 µM (E. cloacae; planktonic E. cloacae, cutoff for positive-scoring molecules 3-fold increase, read-out: AK-based Prestwick Library Screening Results, E. cloacae (increase in extracellular AK activity)): 0.9
fold induction at 50 µM (E. faecium; planktonic E. faecium, cutoff for positive-scoring molecules 3-fold increase, read-out: AK-based Prestwick Library Screening Results, E. faecium (increase in extracellular AK activity)): 1
fold induction at 50 µM (E. coli; planktonic E. coli, cutoff for positive-scoring molecules 3-fold increase, read-out: AK-based Prestwick Library Screening Results, E. coli (increase in extracellular AK activity)): 0.9
fold induction at 50 µM (P. aeruginosa; planktonic P. aeruginosa, cutoff for positive-scoring molecules 3-fold increase, read-out: AK-based Prestwick Library Screening Results, P. aeruginosa (increase in extracellular AK activity)): 0.9
fold induction at 50 µM (K. pneumoniae; planktonic K. pneumoniae, cutoff for positive-scoring molecules 3-fold increase, read-out: AK-based Prestwick Library Screening Results, K. pneumoniae (increase in extracellular AK activity)): 0.8
fold induction at 50 µM ([2]; planktonic A. baumannii, cutoff for positive-scoring molecules 3-fold increase, read-out: AK-based Prestwick Library Screening Results, A. baumannii (increase in extracellular AK activity)): 1

CC1=CC(=O)c2ccccc2C1=O [Menadione]
fold induction at 50 µM ([1]; planktonic, cutoff for positive 3-fold increase, read-out: AK-based Prestwick Library Screening Results, S. aureus (fold increase in extracellular AK activity)): 1.4
fold induction at 50 µM (E. cloacae; planktonic, cutoff for positive 3-fold increase, read-out: AK-based Prestwick Library Screening Results, E. cloacae (fold increase in extracellular AK activity)): 1.5
fold induction at 50 µM (E. faecium; planktonic, cutoff for positive 3-fold increase, read-out: AK-based Prestwick Library Screening Results, E. faecium (fold increase in extracellular AK activity)): 1.1
fold induction at 50 µM (E. coli; planktonic, cutoff for positive 3-fold increase, read-out: AK-based Prestwick Library Screening Results, E. coli (fold increase in extracellular AK activity)): 1
fold induction at 50 µM (P. aeruginosa; planktonic, cutoff for positive 3-fold increase, read-out: AK-based Prestwick Library Screening Results, P. aeruginosa (fold increase in extracellular AK activity)): 1.2
fold induction at 50 µM (K. pneumoniae; planktonic, cutoff for positive 3-fold increase, read-out: AK-based Prestwick Library Screening Results, K. pneumoniae (fold increase in extracellular AK activity)): 1
fold induction at 50 µM ([2]; planktonic, cutoff for positive 3-fold increase, read-out: AK-based Prestwick Library Screening Results, A. baumannii (fold increase in extracellular AK activity)): 1

NC(=O)N1c2ccccc2C=Cc2ccccc21 [Carbamazepine]
fold induction at 50 µM ([1]; planktonic S. aureus, 384-well, cutoff for positive-scoring molecules 3-fold increase, read-out: AK-based Prestwick Library Screening Results: S. aureus (increase in extracellular AK activity)): 1
fold induction at 50 µM (E. cloacae; planktonic E. cloacae, 384-well, cutoff for positive-scoring molecules 3-fold increase, read-out: AK-based Prestwick Library Screening Results: E. cloacae (increase in extracellular AK activity)): 1.5
fold induction at 50 µM (E. faecium; planktonic E. faecium, 384-well, cutoff for positive-scoring molecules 3-fold increase, read-out: AK-based Prestwick Library Screening Results: E. faecium (increase in extracellular AK activity)): 0.8
fold induction at 50 µM (E. coli; planktonic E. coli, 384-well, cutoff for positive-scoring molecules 3-fold increase, read-out: AK-based Prestwick Library Screening Results: E. coli (increase in extracellular AK activity)): 1
fold induction at 50 µM (P. aeruginosa; planktonic P. aeruginosa, 384-well, cutoff for positive-scoring molecules 3-fold increase, read-out: AK-based Prestwick Library Screening Results: P. aeruginosa (increase in extracellular AK activity)): 1
fold induction at 50 µM (K. pneumoniae; planktonic K. pneumoniae, 384-well, cutoff for positive-scoring molecules 3-fold increase, read-out: AK-based Prestwick Library Screening Results: K. pneumoniae (increase in extracellular AK activity)): 0.9
fold induction at 50 µM ([2]; planktonic A. baumannii, 384-well, cutoff for positive-scoring molecules 3-fold increase, read-out: AK-based Prestwick Library Screening Results: A. baumannii (increase in extracellular AK activity)): 0.9

Nc1ccc(S(=O)(=O)Nc2cnc3ccccc3n2)cc1 [Sulfaquinoxaline sodium salt]
fold induction at 50 µM ([1]; planktonic, cutoff for positive-scoring molecules 3-fold increase, read-out: AK-based Prestwick Library Screening Results, S. aureus (fold increase in extracellular AK activity)): 0.7
fold induction at 50 µM (E. cloacae; planktonic, cutoff for positive-scoring molecules 3-fold increase, read-out: AK-based Prestwick Library Screening Results, E. cloacae (fold increase in extracellular AK activity)): 0.8
fold induction at 50 µM (E. faecium; planktonic, cutoff for positive-scoring molecules 3-fold increase, read-out: AK-based Prestwick Library Screening Results, E. faecium (fold increase in extracellular AK activity)): 0.9
fold induction at 50 µM (E. coli; planktonic, cutoff for positive-scoring molecules 3-fold increase, read-out: AK-based Prestwick Library Screening Results, E. coli (fold increase in extracellular AK activity)): 0.6
fold induction at 50 µM (P. aeruginosa; planktonic, cutoff for positive-scoring molecules 3-fold increase, read-out: AK-based Prestwick Library Screening Results, P. aeruginosa (fold increase in extracellular AK activity)): 0.6
fold induction at 50 µM (K. pneumoniae; planktonic, cutoff for positive-scoring molecules 3-fold increase, read-out: AK-based Prestwick Library Screening Results, K. pneumoniae (fold increase in extracellular AK activity)): 0.6
fold induction at 50 µM ([2]; planktonic, cutoff for positive-scoring molecules 3-fold increase, read-out: AK-based Prestwick Library Screening Results, A. baumannii (fold increase in extracellular AK activity)): 1

Cc1onc(-c2ccccc2Cl)c1C(=O)N[C@@H]1C(=O)N2[C@@H]1SC(C)(C)[C@@H]2C(=O)O [Cloxacillin sodium salt]
fold induction at 50 µM [1, 3]: 5.3
fold induction at 50 µM (E. cloacae; [4]): 1
fold induction at 50 µM (E. faecium; [5]): 1
fold induction at 50 µM (E. coli; [6]): 1
fold induction at 50 µM (P. aeruginosa; [7]): 1
fold induction at 50 µM (K. pneumoniae; [8]): 0.7
fold induction at 50 µM [2, 9]: 1.3

CC[C@H](CC[C@@H](C)[C@H]1CC[C@H]2[C@@H]3CC=C4C[C@@H](O)CC[C@]4(C)[C@H]3CC[C@]12C)C(C)C [Beta-sistosterol]
AK-based Prestwick library screening result, S. aureus (fold increase in extracellular AK activity) ([1]; planktonic S. aureus, […]): 0.7
AK-based Prestwick library screening result, E. cloacae (fold increase in extracellular AK activity) (E. cloacae; planktonic E. cloacae, […]): 1.1
AK-based Prestwick library screening result, E. faecium (fold increase in extracellular AK activity) (E. faecium; planktonic E. faecium, […]): 0.9
AK-based Prestwick library screening result, E. coli (fold increase in extracellular AK activity) (E. coli; planktonic E. coli, […]): 0.8
AK-based Prestwick library screening result, P. aeruginosa (fold increase in extracellular AK activity) (P. aeruginosa; planktonic P. aeruginosa, […]): 0.8
AK-based Prestwick library screening result, K. pneumoniae (fold increase in extracellular AK activity) (K. pneumoniae; planktonic K. pneumoniae, […]): 0.8
AK-based Prestwick library screening result, A. baumannii (fold increase in extracellular AK activity) ([2]; planktonic A. baumannii, […]): 0.8
